From patent US6855843B2, “Inhibitors of α4 mediated cell adhesion” (Tanabe Seiyaku Co., Ltd., priority 1998, dated 2005)

Each compound was assayed against T1, α4β7 (adhesion of RPMI cells to CS-1) (Homo sapiens, UniProt P13612+P26010) (assay: RPMI-CS-1 cell adhesion assay). Conditions: adhesion of RPMI B-cell line (expresses α4β7) to CS-1 peptide coated microwells; read-out: RPMI-CS-1 IC50 value range.
T1 construct: endogenous in cells
T1 sequence (P13612 34-1032): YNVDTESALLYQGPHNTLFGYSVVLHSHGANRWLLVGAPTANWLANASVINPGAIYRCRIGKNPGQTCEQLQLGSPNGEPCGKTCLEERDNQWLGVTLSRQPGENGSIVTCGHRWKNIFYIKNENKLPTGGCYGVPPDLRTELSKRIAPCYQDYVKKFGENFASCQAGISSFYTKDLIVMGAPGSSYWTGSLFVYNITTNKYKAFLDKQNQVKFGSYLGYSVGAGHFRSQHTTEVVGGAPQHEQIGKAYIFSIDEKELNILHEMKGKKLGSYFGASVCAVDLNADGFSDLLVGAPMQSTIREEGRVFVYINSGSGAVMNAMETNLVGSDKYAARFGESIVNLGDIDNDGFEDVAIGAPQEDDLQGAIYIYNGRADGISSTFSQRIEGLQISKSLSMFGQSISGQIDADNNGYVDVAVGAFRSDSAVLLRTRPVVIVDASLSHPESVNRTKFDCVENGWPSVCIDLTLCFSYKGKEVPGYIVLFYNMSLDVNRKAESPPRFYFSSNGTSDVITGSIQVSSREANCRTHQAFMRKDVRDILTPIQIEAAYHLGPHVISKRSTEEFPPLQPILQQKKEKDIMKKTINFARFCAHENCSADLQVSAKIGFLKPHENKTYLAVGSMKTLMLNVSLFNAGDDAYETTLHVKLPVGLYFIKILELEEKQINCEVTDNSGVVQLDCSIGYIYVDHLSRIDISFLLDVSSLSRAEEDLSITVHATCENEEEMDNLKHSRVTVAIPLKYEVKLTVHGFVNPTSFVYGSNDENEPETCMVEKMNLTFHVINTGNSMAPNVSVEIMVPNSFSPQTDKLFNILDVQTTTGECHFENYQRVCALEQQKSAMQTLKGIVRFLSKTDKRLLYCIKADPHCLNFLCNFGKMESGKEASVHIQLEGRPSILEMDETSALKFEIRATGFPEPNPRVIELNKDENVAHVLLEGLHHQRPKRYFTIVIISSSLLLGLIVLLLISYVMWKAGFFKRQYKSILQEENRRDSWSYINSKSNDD
T1 sequence (P26010 20-798): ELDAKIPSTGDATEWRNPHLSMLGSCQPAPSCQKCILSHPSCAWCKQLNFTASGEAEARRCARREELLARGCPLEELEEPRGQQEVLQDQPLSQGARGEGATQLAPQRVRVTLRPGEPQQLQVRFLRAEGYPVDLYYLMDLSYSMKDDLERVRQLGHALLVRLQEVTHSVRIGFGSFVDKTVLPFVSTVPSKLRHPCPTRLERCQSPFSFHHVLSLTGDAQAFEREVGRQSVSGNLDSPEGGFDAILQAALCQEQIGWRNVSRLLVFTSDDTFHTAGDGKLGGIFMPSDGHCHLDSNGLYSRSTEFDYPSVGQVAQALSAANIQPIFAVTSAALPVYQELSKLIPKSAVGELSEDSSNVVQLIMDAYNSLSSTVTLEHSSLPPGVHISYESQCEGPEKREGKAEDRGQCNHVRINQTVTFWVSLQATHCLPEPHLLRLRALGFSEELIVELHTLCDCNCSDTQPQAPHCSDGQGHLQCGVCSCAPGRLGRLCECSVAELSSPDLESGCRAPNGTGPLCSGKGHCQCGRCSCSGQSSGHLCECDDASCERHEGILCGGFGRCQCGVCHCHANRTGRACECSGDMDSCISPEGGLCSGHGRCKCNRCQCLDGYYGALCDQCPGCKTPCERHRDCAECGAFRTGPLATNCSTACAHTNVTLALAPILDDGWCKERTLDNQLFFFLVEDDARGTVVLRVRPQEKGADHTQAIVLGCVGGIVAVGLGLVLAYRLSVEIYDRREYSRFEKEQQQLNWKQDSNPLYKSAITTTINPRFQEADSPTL
Type: cell-based
Procedure: RPMI-CS-1 Cell Adhesion Assay:
The test compounds were added in increasing concentrations to RPMI cells and then the cell-compound mixture was added to CS-1 coated microwells. The plates were incubated, washed and the percentage of attached cells were quantitated.
The CS-1 derived peptide, […], and the scrambled control peptide, […], were synthesized at Tanabe Research Laboratories, USA, Inc. on a Beckman 990 synthesizer using t-Boc methodology. […] Microtiter plates were coated with 20 μg/ml human serum albumin (HSA) for 2 hours at room temperature, washed once with PBS and derivatized with 10 μg/ml SPDP for 1 hour. […] Unbound peptide was removed from the plates by washing with PBS. To block non-reacted sites, the plates were coated with 100 μl of a 2.5 mg/ml BSA solution in PBS for one hour at 37° C. 100 μl of RPMI cells (2.5×10^6 cells/ml) in Dulbecco's Modified Eagles Medium (DMEM) plus 0.25% ovalbumin were added to peptide coated dishes and incubated for 1 hour at 37° C. […] To do this, the enzyme substrate p-nitrophenyl-N-acetyl-β-D-glucoseaminide is dissolved at 7.5 mM in 0.1 M citrate buffer pH 5 and then mixed with an equal volume of 0.5% Triton X100. 50 μl of the substrate solution was added to the plates and the plates were incubated at 37° C. for 60 minutes.
In this assay, IC50 value ranges (μM) are depicted by A, B, C and D. These ranges as follows. D>5≧C>1≧B>0.3≧A

`O=C(O)C=Cc1ccccc1-c1ccc(C[C@H](NC(=O)c2c(Cl)cccc2Cl)C(=O)O)cc1` (mixture of isomers) [Example 49, N-(2,6-Dichlorobenzoyl)-4-[2-(2-carboxyethenyl)phenyl]-L-phenylalanine] and `Nc1ccccc1-c1ccc(C[C@H](NC(=O)c2c(Cl)cccc2Cl)C(=O)O)cc1` [Example 23, N-(2,6-Dichlorobenzoyl)-4-(2-aminophenyl)-L-phenylalanine] fall in the same range of IC50: 300 to 1000 nM for the first, 300 to 1000 nM for the second.

`C[S+]([O-])c1ccccc1-c1ccc(C[C@H](NC(=O)c2c(Cl)cccc2Cl)C(=O)O)cc1` (single isomer, unassigned) [Example 152A, N-(2,6-dichloro-benzoyl)-4-[2-(methylsulfinyl)phenyl]-L-phenylalanine] and `COc1ccccc1-c1ccc(C[C@H](NC(=O)c2c(Cl)cccc2Cl)C(=O)O)cc1` [Example 8, N-(2,6-Dichlorobenzoyl)-4-(2-methoxyphenyl)-L-phenylalanine] cannot be ordered by IC50: < 300 nM for the first, < 300 nM for the second.

First: C[S+]([O-])c1ccccc1-c1ccc(C[C@H](NC(=O)c2c(Cl)cccc2Cl)C(=O)O)cc1 (single isomer, unassigned) [Example 152C, N-(2,6-dichloro-benzoyl)-4-[2-(methylsulfinyl)phenyl]-L-phenylalanine]
Second: NS(=O)(=O)c1ccccc1-c1ccc(C[C@H](NC(=O)c2c(Cl)cccc2Cl)C(=O)O)cc1 [Example 17, N-(2,6-Dichlorobenzoyl)-4-(2-sulfamoylphenyl)-L-phenylalanine]
The IC50 of the first is higher: 300 to 1000 nM for the first, < 300 nM for the second.

First: COC(=O)[C@H](Cc1ccc(-c2ccccc2OC)cc1)NC(=O)c1c(Cl)cccc1Cl [Example 1A, N-(2,6-Dichlorobenzoyl)-4-(2-methoxyphenyl)-L-phenylalanine methyl ester]
Second: COC(=O)[C@H](Cc1ccc(-c2c(OC)cccc2OC)cc1)NC(=O)c1c(Cl)cccc1Cl [Example 7A, N-(2,6-Dichlorobenzoyl)-4-(2,6-dimethoxyphenyl)-L-phenylalanine methyl ester]
The IC50 of the first is higher: 300 to 1000 nM for the first, < 300 nM for the second.

Compared with `COc1ccccc1-c1ccc(C[C@H](NC(=O)[C@@H](C)c2ccccc2)C(=O)O)cc1` [Example 2, N-[(S)-2-Phenylpropionyl]-4-(2-methoxyphenyl)-L-phenylalanine], `COc1ccc(-c2ccc(C[C@H](NC(=O)c3c(Cl)cccc3Cl)C(=O)O)cc2)c(OC)c1` [Example 9, N-(2,6-Dichlorobenzoyl)-4-(2,4-dimethoxyphenyl)-L-phenylalanine] is lower in IC50: 1000 to 5000 nM for the first, < 300 nM for the second.

`COc1cccc(OC)c1-c1ccc(C[C@H](NC(=O)c2c(F)cccc2F)C(=O)O)cc1` [Example 3, N-(2,6-Difluorobenzoyl)-4-(2,6-dimethoxyphenyl)-L-phenylalanine] and `CCOc1cccc(OC)c1-c1ccc(C[C@H](NC(=O)c2c(Cl)cccc2Cl)C(=O)O)cc1` [Example 14, N-(2,6-Dichlorobenzoyl)-4-(2-ethoxy-6-methoxyphenyl)-L-phenylalanine] cannot be ordered by IC50: < 300 nM for the first, < 300 nM for the second.

First: COC(=O)[C@H](Cc1ccc(-c2cccs2)cc1)NC(=O)c1c(Cl)cccc1Cl [Example 4A, N-(2,6-Dichlorobenzoyl)-4-(2-thienyl)-L-phenylalanine methyl ester]
Second: O=C(N[C@@H](Cc1ccc(-c2cccs2)cc1)C(=O)O)c1c(Cl)cccc1Cl [Example 4B, N-(2,6-Dichlorobenzoyl)-4-(2-thienyl)-L-phenylalanine]
The IC50 of the first is higher: 1000 to 5000 nM for the first, 300 to 1000 nM for the second. The second is the more potent here.

`COc1ccc(OC)c(-c2ccc(C[C@H](NC(=O)c3c(Cl)cccc3Cl)C(=O)O)cc2)c1OC` [Example 10, N-(2,6-Dichlorobenzoyl)-4-(2,3,6-trimethoxyphenyl)-L-phenylalanine] and `COc1cc(OC)c(-c2ccc(C[C@H](NC(=O)c3c(Cl)cccc3Cl)C(=O)O)cc2)c(OC)c1` [Example 11, N-(2,6-Dichlorobenzoyl)-4-(2,4,6-trimethoxyphenyl)-L-phenylalanine] cannot be ordered by IC50: < 300 nM for the first, < 300 nM for the second.

`COc1cc(Cl)cc(OC)c1-c1ccc(C[C@H](NC(=O)c2c(Cl)cccc2Cl)C(=O)O)cc1` [Example 12, N-(2,6-Dichlorobenzoyl)-4-(4-chloro-2,6-dimethoxyphenyl)-L-phenylalanine] and `CCOc1cccc(OCC)c1-c1ccc(C[C@H](NC(=O)c2c(Cl)cccc2Cl)C(=O)O)cc1` [Example 13, N-(2,6-Dichlorobenzoyl)-4-(2,6-diethoxyphenyl)-L-phenylalanine] cannot be ordered by IC50: < 300 nM for the first, < 300 nM for the second.

First: COC(=O)[C@H](Cc1ccc(-c2ccccc2S(=O)(=O)NC(C)(C)C)cc1)NC(=O)c1c(Cl)cccc1Cl [Example 15, N-(2,6-Dichlorobenzoyl)-4-[2-[N-(tert-butyl)sulfamoyl]phenyl]-L-phenylalanine methyl ester]
Second: CC(C)(C)NS(=O)(=O)c1ccccc1-c1ccc(C[C@H](NC(=O)c2c(Cl)cccc2Cl)C(=O)O)cc1 [Example 16, N-(2,6-Dichlorobenzoyl)-4-[2-[N-(tert-butyl)sulfamoyl]phenyl]-L-phenylalanine]
The IC50 of the first is higher: 300 to 1000 nM for the first, < 300 nM for the second. The second is the more potent here.

First: O=C(NS(=O)(=O)c1ccccc1-c1ccc(C[C@H](NC(=O)c2c(Cl)cccc2Cl)C(=O)O)cc1)c1ccccc1 [Example 18, N-(2,6-Dichlorobenzoyl)-4-[2-(N-benzoylsulfamoyl)phenyl]-L-phenylalanine]
Second: CC(=O)NS(=O)(=O)c1ccccc1-c1ccc(C[C@H](NC(=O)c2c(Cl)cccc2Cl)C(=O)O)cc1 [Example 19, N-(2,6-Dichlorobenzoyl)-4-[2-(N-acetylsulfamoyl)phenyl]-L-phenylalanine]
The IC50 of the first is lower: 300 to 1000 nM for the first, 1000 to 5000 nM for the second.

`CNS(=O)(=O)c1ccccc1-c1ccc(C[C@H](NC(=O)c2c(Cl)cccc2Cl)C(=O)O)cc1` [Example 20, N-(2,6-Dichlorobenzoyl)-4-[2-(N-methylsulfamoyl)phenyl]-L-phenylalanine] and `CN(C)S(=O)(=O)c1ccccc1-c1ccc(C[C@H](NC(=O)c2c(Cl)cccc2Cl)C(=O)O)cc1` [Example 21, N-(2,6-Dichlorobenzoyl)-4-[2-(N,N-dimethylsulfamoyl)phenyl]-L-phenylalanine] cannot be ordered by IC50: < 300 nM for the first, < 300 nM for the second.

Compared with `CC(C)(C)OC(=O)Nc1ccccc1-c1ccc(C[C@H](NC(=O)c2c(Cl)cccc2Cl)C(=O)O)cc1` [Example 22, N-(2,6-Dichlorobenzoyl)-4-[2-(tertbutoxycarbonylamino)phenyl]-L-phenylalanine], `CS(=O)(=O)Nc1ccccc1-c1ccc(C[C@H](NC(=O)c2c(Cl)cccc2Cl)C(=O)O)cc1` [Example 24, N-(2,6-Dichlorobenzoyl)-4-[2-(methanesulfonylamino)phenyl]-L-phenylalanine] is lower in IC50: 1000 to 5000 nM for the first, < 300 nM for the second.
